The text below walks through data of paper PMC7961380, “A Systematic Study of the In Vitro Pharmacokinetics and Estimated Human In Vivo Clearance of Indole and Indazole-3-Carboxamide Synthetic Cannabinoid Receptor Agonists Detected on the Illicit Drug Market” (Molecules, 2021).

“And” between values parts separate entries of the source, which are not always exact repeats. Identical values can stand only once. Like-named read-outs stand apart in the source and are kept apart here.

Data set [1] is described as follows: Chromatographic hydrophobicity index (CHI) log D at pH 7.4. Conditions: for chromatographic logD: reversed-phase HPLC, Acquity BEH C18 column.
Experimental: Chromatographic hydrophobicity index (CHI) log D samples (see below) were analysed using high-performance liquid chromatography (HPLC) with a Shimadzu Nexera X2 HPLC coupled to a Shimadzu SPD-30 MA photodiode array detector (PDA) (Shimadzu, Kyoto, Japan). […] The sample chamber was maintained at 25 °C. Gradient elution was performed, with mobile phase (MP) consisting of ammonium acetate in water (10 mM, pH 7.4) (MP A) and acetonitrile (MP B).
A calibration mix of ten compounds at 10 µg mL^−1 in 1:1 (v/v) water:ACN was used (theophylline, phenyltetrazole, benzimidazole, colchicine, phenyltheophilline, acetophenone, indole, propiophenone, butyrophenone and valerophenone (all Sigma-Aldrich)). Test compounds were prepared at 0.25 mM in 1:1 (v/v) water:ACN. Samples (n = 2 for calibration standards; n = 1 for test compounds) were analysed using UPLC-PDA as described above. Retention times of calibration compounds are used to calculate retention factor (k), which is plotted against literature CHI values for each compound.
Where tr is the retention time of the analyte and t0 is the retention time of an unretained compound
Calculation of chromatographic hydrophobicity index (CHI)
CHI = (𝑘 x slope) − intercept Eqn.4
Where k is the retention factor of the analyte.
Calculation of CHI Log D [1]
Where CHI is the chromatographic hydrophobicity index obtained using Equation 4
The nature of data set [2]: Plasma protein binding by equilibrium dialysis. Type of data set: in vitro ADME, human. The settings on record: human, pooled human plasma, pH 7.4, equilibrium dialysis 5 h, 37 °C. (In equilibrium dialysis free small molecules cross a membrane that holds back macromolecules.)
Data set [3] is described as follows: Metabolic stability, pooled human liver microsome incubations. The settings on record: for Predicted In Vivo Hepatic Clearance, CLH: from pHLM CLint, well-stirred model with plasma fu, Q 21 mL min^−1 kg^−1; for CLint scaled at 0.5 µM / half-life at 0.5 µM: human, microsomes; for CLint scaled at 0.5 µM: pH 7.4, Intrinsic clearance; for half-life at 0.5 µM: pH 7.4, T1/2 (min), pHLM 0.5 mg mL^−1, 0.5 µM, NADPH, 37 °C; for half-life at 0.5 µM / Microsomal Intrinsic Clearance, CLint micr: n ≥ 3 ± SD.

Data set [4] can be described thus: Short-term plasma stability with and without esterase inhibitors. The settings on record: human, pH 7.4, Parent Compound Remaining (%), 3 h, 37 °C.
Data set [5] can be described thus: Metabolic stability, pooled human cryopreserved hepatocyte incubations. The settings on record: human, hepatocytes; for CLint scaled at 0.5 µM: Intrinsic clearance, pHHeps, alternative hepatocyte cell density 99x10^6 hepatocytes per gram liver; for half-life at 0.5 µM: T1/2 (min), pHHeps 0.25 million cells mL^−1, 0.5 µM, 37 °C, n ≥ 3 ± SD.
Data set [6] has as its system pooled human cryopreserved hepatocytes (pHHeps). The data set is described as above. The settings on record: for Predicted In Vivo Hepatic Clearance, CLH: from pHHeps CLint, well-stirred model with plasma fu, Q 21 mL min^−1 kg^−1.
Setting [7] is: 10 µg mL^−1, read-out: PPB (%) (converted).
Setting [8] is: plasma, read-out: Fraction Unbound (fu).
The mark [9] stands for this setting: pHLM, alternative microsomal scaling factor 32 mg microsomal protein per gram liver.
The mark [10] stands for this setting: pHLM, alternative microsomal scaling factor 45 mg microsomal protein per gram liver.
[11] abbreviates: pHLM, scaling factor 32 mg microsomal protein per gram liver.
[12] abbreviates: pHLM, scaling factor 45 mg microsomal protein per gram liver.
Where [13] appears, read: Esterase Inhibitors, pH 7.4, BNPP and PMSF 500 µM each.
Where [14] appears, read: plasma, No Esterase Inhibitors, pH 7.4, pooled human plasma.
Setting [15] is: pHHeps, 99x10^6 hepatocytes per gram liver.

The term chromatographic logD denotes lipophilicity estimated from chromatographic retention. A higher chromatographic logD goes with a more lipophilic compound. Turning to `COC(=O)C(NC(=O)c1nn(CCCCF)c2ccccc12)C(C)(C)C` (stereo not shown) [4F-MDMB-BINACA (4), methyl 2-[1-(4-fluorobutyl)-1H-indazole-3-carboxamido]-3,3-dimethylbutanoate], in data set [1], the chromatographic logD amounted to 4.18.
On the same count and under the same terms, to `COC(=O)C(NC(=O)c1cn(CCCCCF)c2ccccc12)C(C)(C)C` (stereo not shown) [5F-MDMB-PICA (3), methyl 2-[1-(5-fluoropentyl)-1H-indole-3-carboxamido]-3,3-dimethylbutanoate] belongs 4.06.
A word on the CLint scaled: it is a measure of how fast metabolising enzymes remove a compound, apart from limits set by blood flow. Lower therefore signals slow turnover. As a reminder, the half-life is the time in which the quantity being followed falls by half. The fraction remaining is the share of the starting amount still present when the sample was taken. On to `C=CCCCn1cc(C(=O)N[C@H](C(=O)OC)C(C)(C)C)c2ccccc21` [(S)-MDMB-4en-PICA (12), methyl 3,3-dimethyl-2-[1-(pent-4-en-1-yl)-1H-indole-3-carboxamido]butanoate], for which the fraction unbound at 5 h, 10 µg mL^−1 was 0.035 in data set [2] (setting [7]) and 0.035 ± 0.0031 in data set [2] (setting [8]). In addition, the “Predicted In Vivo Hepatic Clearance, CLH” value in data set [3] is 5.69 ± 0.61 mL/min/kg; in data set [6] it was 5.46 ± 0.78 mL/min/kg. Further, the “Hepatic extraction ratio, EH” value stood at 0.27 ± 0.029 in data set [3] (from pHLM incubations); 0.18 ± 0.022 in data set [3] (setting [11]); 0.24 ± 0.027 in data set [3] (setting [12]); 0.26 ± 0.037 in data set [6] (from pHHeps incubations); 0.25 in data set [6] (setting [15]). For the same compound, the CLint scaled at 0.5 µM came to 137 mL/min/kg in data set [3] (setting [9]), 192 mL/min/kg in data set [3] (setting [10]) and 197 mL/min/kg in data set [5]. Moreover, the values for the half-life at 0.5 µM in data set [3] and in data set [5] were 8.5 ± 1.3 min and 37 ± 6.9 min, respectively. For the same compound, the “% parent compound remaining, Average” value in data set [3] (pHLM, 3 min) amounted to 77.5%; in data set [3] (pHLM, 6 min), 62.6%; in data set [3] (pHLM, 9 min), 50.2%; in data set [3] (pHLM, 15 min), 28.5%; in data set [3] (pHLM, 30 min) it was 5.6%; in data set [6] (pHHeps, 3 min), 93.4%. Further, the “% parent compound remaining, Average” value in data set [6] (pHHeps, 6 min) is listed as 83.7%; in data set [6] (pHHeps, 9 min) it was 80.4%; in data set [6] (pHHeps, 15 min), 74.0%; in data set [6] (pHHeps, 30 min), 51.6%; in data set [6] (pHHeps, 45 min), 34.2%; in data set [6] (pHHeps, 60 min) it was 25.0%. In data set [3] (pHLM), the “Microsomal Intrinsic Clearance, CLint micr” value is listed as 0.166 ± 0.024 mL min^−1 mg Microsomal Protein^−1. Further, the “Predicted in vivo hepatic clearance, CLH” value is 3.88 mL/min/kg in data set [3] (setting [11]), 5.07 ± 0.57 mL/min/kg in data set [3] (setting [12]) and 5.15 mL/min/kg in data set [6] (setting [15]). The share remaining at 3 h, 5 µM in data set [4] (setting [13]) came to 89.4 ± 2.3%; in data set [4] (setting [14]), 91.5 ± 8.6%.
With `C=CCCCn1nc(C(=O)N[C@H](C(=O)OC)C(C)(C)C)c2ccccc21` [(S)-MDMB-4en-PINACA (5), methyl 3,3-dimethyl-2-[1-(pent-4-en-1-yl)-1H-indazole-3-carboxamido] butanoate], the fraction unbound at 5 h, 10 µg mL^−1 is 0.01 in data set [2] (setting [7]) and 0.01 ± 0.0001 in data set [2] (setting [8]). The “Predicted In Vivo Hepatic Clearance, CLH” value in data set [3] was 2.66 ± 0.37 mL/min/kg; in data set [6], 5.11 ± 0.89 mL/min/kg. Also, the “Hepatic extraction ratio, EH” value was 0.13 ± 0.018 in data set [3] (from pHLM incubations); 0.08 ± 0.012 in data set [3] (setting [11]); 0.11 ± 0.016 in data set [3] (setting [12]); 0.24 ± 0.042 in data set [6] (from pHHeps incubations); 0.23 in data set [6] (setting [15]). For the same compound, the figures for the CLint scaled at 0.5 µM in data set [3] (setting [9]), in data set [3] (setting [10]) and in data set [5] were 186 mL/min/kg, 262 ± 42.3 mL/min/kg and 632 mL/min/kg, respectively. Further, the half-life at 0.5 µM in data set [3] is 6.3 ± 1 min; in data set [5], 12 ± 2.6 min. Also, the “% parent compound remaining, Average” value in data set [3] (pHLM, 3 min) amounted to 72.3%; in data set [3] (pHLM, 6 min) it was 52.7%; in data set [3] (pHLM, 9 min), 36.7%; in data set [3] (pHLM, 15 min), 18.6%; in data set [3] (pHLM, 30 min), 3.1%; in data set [6] (pHHeps, 3 min), 79.7%. Further, the “% parent compound remaining, Average” value in data set [6] (pHHeps, 6 min) came out at 69.0%; in data set [6] (pHHeps, 9 min) it was 56.7%; in data set [6] (pHHeps, 15 min), 41.1%; in data set [6] (pHHeps, 30 min) it was 17.1%; in data set [6] (pHHeps, 45 min), 7.6%; in data set [6] (pHHeps, 60 min), 3.4%. For the same compound, the “Microsomal Intrinsic Clearance, CLint micr” value in data set [3] (pHLM) is recorded as 0.226 ± 0.037 mL min^−1 mg Microsomal Protein^−1. Besides, the results for the “Predicted in vivo hepatic clearance, CLH” value in data set [3] (setting [11]), in data set [3] (setting [12]) and in data set [6] (setting [15]) were 1.71 mL/min/kg, 2.32 ± 0.33 mL/min/kg and 4.82 mL/min/kg, respectively. The amount remaining at 3 h, 5 µM was 89 ± 3.3% in data set [4] (plasma, Esterase Inhibitors, pH 7.4, BNPP and PMSF 500 µM each); 94.8 ± 0.7% in data set [4] (setting [14]).
As to `COC(=O)[C@@H](NC(=O)c1nn(Cc2ccc(F)cc2)c2ccccc12)C(C)(C)C` [(S)-MDMB-FUBINACA (6)], the results for the fraction unbound at 5 h, 10 µg mL^−1 in data set [2] (setting [7]) and in data set [2] (setting [8]) were 0.005 and 0.005 ± 0.0008, respectively. Further, the “Predicted In Vivo Hepatic Clearance, CLH” value in data set [3] was 0.87 ± 0.18 mL/min/kg; in data set [6], 1.39 mL/min/kg and 1.39 ± 0.27 mL/min/kg. Moreover, the “Hepatic extraction ratio, EH” value in data set [3] (from pHLM incubations) is 0.04 ± 0.009; in data set [3] (setting [11]), 0.03 ± 0.006; in data set [3] (setting [12]), 0.04 ± 0.008; in data set [6] (from pHHeps incubations), 0.07 and 0.07 ± 0.013; in data set [6] (setting [15]) it was 0.06 ± 0.012. Also, the CLint scaled at 0.5 µM is 111 mL/min/kg in data set [3] (setting [9]), 156 mL/min/kg in data set [3] (setting [10]) and 275 mL/min/kg in data set [5]. The half-life at 0.5 µM in data set [3] was found to be 11 ± 2.4 min; in data set [5], 26 ± 5 min. The “% parent compound remaining, Average” value in data set [3] (pHLM, 3 min) came out at 70.2%; in data set [3] (pHLM, 6 min) it was 64.2%; in data set [3] (pHLM, 9 min) it was 55.8%; in data set [3] (pHLM, 15 min) it was 34.3%; in data set [3] (pHLM, 30 min), 16.4%; in data set [6] (pHHeps, 3 min), 90.3%. In addition, the “% parent compound remaining, Average” value in data set [6] (pHHeps, 6 min) is 73.3%; in data set [6] (pHHeps, 9 min), 80.1%; in data set [6] (pHHeps, 15 min), 73.3%; in data set [6] (pHHeps, 30 min) it was 38.8%; in data set [6] (pHHeps, 45 min) it was 17.3%; in data set [6] (pHHeps, 60 min), 9.1%. Further, the “Microsomal Intrinsic Clearance, CLint micr” value in data set [3] (pHLM) is on record as 0.135 ± 0.030 mL min^−1 mg Microsomal Protein^−1. Moreover, the “Predicted in vivo hepatic clearance, CLH” value in data set [3] (setting [11]) is 0.54 ± 0.12 mL/min/kg; in data set [3] (setting [12]) it was 0.75 ± 0.16 mL/min/kg; in data set [6] (setting [15]), 1.29 ± 0.25 mL/min/kg. Also, the fraction remaining at 3 h, 5 µM in data set [4] (setting [13]) came to 91.6 ± 2.2%; in data set [4] (setting [14]) it was 94.2 ± 6.3%.
In turn, `CC(C)C(NC(=O)c1nn(CC2CCCCC2)c2ccccc12)C(N)=O` (stereo not shown) [AB-[…] (11), N-[1-amino-3-methyl-1-oxobutan-2-yl]-1-(cyclohexylmethyl)-1H-indazole-3-carboxamide] registered a chromatographic logD in data set [1] of 3.71.
In turn, `COC(=O)[C@@H](NC(=O)c1cn(CC2CCCCC2)c2ccccc12)C(C)C` [AMB-CHMICA (9), methyl [1-(cyclohexylmethyl)-1H-indole-3-carbonyl]valinate] gave a chromatographic logD in data set [1] of 4.77.
In data set [1], `COC(=O)[C@@H](NC(=O)c1nn(Cc2ccc(F)cc2)c2ccccc12)C(C)C` [AMB-FUBINACA (1), methyl [1-(4-fluorobenzyl)-1H-indazole-3-carbonyl]valinate] showed a chromatographic logD of 4.28.
For `C=CCCCn1cc(C(=O)NC(C(=O)OC)C(C)(C)C)c2ccccc21` (stereo not shown) [MDMB-4en-PICA (12), methyl 3,3-dimethyl-2-[1-(pent-4-en-1-yl)-1H-indole-3-carboxamido]butanoate], the chromatographic logD in data set [1] worked out at 4.4.
As to “methyl 2-[1-(5-fluoropentyl)-1H-indazole-3-carboxamido]-3,3-dimethylbutanoate [MDMB-FUBINACA (6)]”, in data set [1] (CHI log D, determined for the (S)-enantiomer, n = 1), the “Experimental Log D7.4” value is 4.69.
